Reference: US20170176446A1, “Methods for Determining the Oncogenic Condition of Cell, Uses Thereof, and Methods for Treating Cancer” (INSERM (INSTITUT NATIONAL DE LA SANTE ET DE LA RECHERCHE …, priority 2009, published 2017)

Key:
MCF7 cells [1] = experiment: OCDO production by MCF7 cells incubated with [14C]CT for 24 hours (example 11); type: cell-based, human; conditions: 10 μM, control = 100
Procedure: (§1) Generally, in order to establish the percentages of OCDO inhibition from the thin-layer chromatography (TLC) plates obtained as in assay 2, the radioactive metabolites are identified and quantified on the basis of said plates using a europium-sensitive plate of GP Phosphor screen type (GE Healthcare) and a Storm 840 phosphorimagor (GE Healthcare). The proportion of radiolabeled oxysterols is determined on the autoradiogram obtained by densitometry using the Image Quant 5.2 software. The percentage is calculated on the basis of the ratio between the amount of oxysterols quantified divided by the sum of the amounts of oxysterols (CEE+CE+CT+OCDO). Since the CEE (CE ester) originates exclusively from the CE, the percentage CE is calculated on the basis of the ratio (CE+CEE)/(CE+CEE+CT+OCDO).
The following experiments were carried out: MCF7 tumor cells were placed in the presence of 0.5 μM of [^14C]CT and were then incubated for 24 hours in the presence of one of the following products: • 1. vehicle solvent (0.1% ethanol in a PBS buffer) serving as a control (lane 1) • 2. 10 μM of progesterone • 3. 10 μM of U18666A • 4. 100 nM of TCDD • 5. 10 μM of benzo(A)pyrene • 6. 10 μM of resveratrol • 7. 10 μM of PDM2 (Ant. 1).
Thin-layer chromatographies were carried out and FIG. 24 represents the plate obtained. The OCDO production in the treated cells was quantified from the spots of the various lanes, by applying the protocol given in detail in example 7. The results of this quantification are represented by the histogram of FIG. 24.
The amounts of OCDO produced by MCF7 cells, when they are incubated according to the same protocol as defined above with other Ahr receptor antagonists, was also measured, the control test being brought to 100 and the OCDO production being expressed as % of the control (same control as above).

MCF7 cells [2] = experiment: OCDO production by MCF7 cells incubated with [14C]CE, thin-layer chromatography; type: cell-based, human; conditions: for % CE / % CT / % OCDO: [14C]CEα, concentration given with each compound, share of labeled oxysterols
From the text: For assays 1 to 5 and in some of the examples given later in this patent application, MCF7 tumor cells, which originate from the American Tissue Culture Collection (ATCC), were used. […] It is desired to study the activity of ChEH in […] cells by silica thin-layer chromatography. The compounds that it is desired to visualize are the CE and CT compounds defined above. In order to visualize the spots corresponding to CE and CT on a chromatography plate, ^14C-labeled CE and CT compounds were synthesized.
In order to be used in assays 1 to 5 which follow, the cells are seeded into 6-well plates at a density of 80 000 cells in a volume of 2 ml. […] After the incubation time desired for the assay, the medium is collected, the cells are washed with cold PBS (phosphate buffer) (2 ml per well) which is pooled with the medium. The cells are then scraped into cold PBS (1 ml for 3 wells); the wells are again rinsed with cold PBS (1 ml for 3 wells). The cell suspension obtained is centrifuged at 1000 rpm for 5 min at 4° C. […] Throughout the rest of this description, the vehicle solvent used is the same as that defined above.
The aqueous and organic radioactivities are counted. The organic phases are brought to dryness under argon. The residue is resuspended in 60 μl of ethanol and then deposited, in a proportion of 20 μl per lane, on to the glass-backed silica plates (Whatman LK-6-DF, 20×20), which are used in the various assays (these plates having been preheated at 100° C. for 1 hour). The migration solvent used is ethyl acetate. The chromatography plates are placed in contact with a “phosphor-screen” plate in a cassette overnight. […] In order to evaluate the more or less dense nature of the spots obtained on the plates, the radioactivity is quantified by densitometry with the “Imagequant”™ computer program.
as §1
Assay 2 given above was therefore completed by measuring the amounts of the products present when the MCF7 tumor cells are incubated as indicated in detail in assay 2.
In order to establish that the link that exists between, on the one hand, the ability of various compounds to inhibit OCDO in an MCF7 tumor cell and, on the other hand, their quality as a ChEH inhibitor, is well-founded, the inhibition coefficients Ki for ChEH relating to a certain number of products was calculated and the production of OCDO by MCF7 cells after incubation of the cells with the same products was measured according to the protocol defined in assay 2 of the present patent application.

ChEH = target: T1, ChEH (Rattus norvegicus, UniProt Q9JJ46); experiment: Determination of the Ki for ChEH on rat liver microsome proteins (Dixon method); type: biochemical; conditions: 150 μg rat liver microsome proteins, [14C]CEα
T1 construct: 150 μg of rat liver microsome proteins are incubated; from tissue; host or cells: rat liver microsomes
T1 sequence (Q9JJ46 1-230): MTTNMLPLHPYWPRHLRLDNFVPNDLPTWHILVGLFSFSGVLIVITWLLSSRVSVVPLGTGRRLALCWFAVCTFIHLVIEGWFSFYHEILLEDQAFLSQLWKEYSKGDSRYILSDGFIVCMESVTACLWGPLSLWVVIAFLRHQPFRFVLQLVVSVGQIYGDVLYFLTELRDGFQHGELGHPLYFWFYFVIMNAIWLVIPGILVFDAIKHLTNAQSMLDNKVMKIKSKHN

[3] = concentration in μM in parentheses after each molecule, control = 100

Row | Molecule | Ki (ChEH) | OCDO production by MCF-7 (% control) (MCF7 cells [2]; [3]) | other results
1 | FC(F)(F)c1ccc(/C=C/c2cc(C(F)(F)F)cc(C(F)(F)F)c2)cc1 [Ant 4, (E)-1-(4′-trifluoromethylphenyl)-2-(3,5-trifluoromethylphenyl)ethene] | – | – | OCDO production by MCF-7 (% control) (MCF7 cells [1]): <1 % control
2 | Ibogaine | – | – | OCDO production by MCF-7 (% control) (MCF7 cells [2]): 25 % control
3 | CN1CCN(CCCN2c3ccccc3Sc3ccc(C(F)(F)F)cc32)CC1 [Trifluoroperazine, 10-[3-(4-methylpiperazin-1-yl)propyl]-2-(trifluoromethyl)phenothiazine] | 135 ± 7 nM | <1 % control | –
4 | CCN(CC)CCO[C@H]1CC[C@@]2(C)C(=CC[C@@H]3[C@@H]2CC[C@]2(C)C(=O)CC[C@@H]32)C1 [U-18666A, 3-beta-(2-(diethylamino)ethoxy)androst-5-en-17-one] | 90.3 ± 5 nM | <1 % control | –
5 | CC(C)CCC[C@@H](C)[C@H]1CC[C@H]2[C@@H]3C[C@@H]4O[C@@]45C[C@@H](O)CC[C@]5(C)[C@H]3CC[C@]12C [CEα, 5,6-α-epoxycholestan-3β-ol] | – | – | % CE (MCF7 cells [2]; MCF7 cells, three days): 31.5%; % CT (MCF7 cells [2]; MCF7 cells, three days): 41.5%; % OCDO (MCF7 cells [2]; MCF7 cells, three days): 27%
6 | COc1cc(/C=C/c2ccc(F)cc2)cc(OC)c1 [Ant 5, (E)-1-(4′-fluorophenyl)-2-(3,5-dimethoxy-phenyl)ethene] | – | – | OCDO production by MCF-7 (% control) (MCF7 cells [1]): <1 % control
7 | COc1ccc(/C(=C(\c2ccccc2)[N+](=O)[O-])c2ccc(OCCN3CCCC3)cc2)cc1 [Nitromiphene, 1-[2-[4-[(Z)-1-(4-methoxyphenyl)-2-nitro-2-phenylethenyl]phenoxy]ethyl]pyrrolidine] | 17.7 ± 6 nM | <1 % control | –
8 | Clc1ccc(/C=C/c2cc(Cl)cc(Cl)c2)cc1 [Ant 1, (E)-1-(4′-chlorophenyl)-2-(3,5-dichlorophenyl)-ethene] | – | – | OCDO production by MCF-7 (% control) (MCF7 cells [1]): <1 % control
9 | CCN(CC)CCOc1ccc(C2C[C@]3(C)C(O)CC[C@H]3[C@@H]3CCc4cc(O)ccc4[C@@H]23)cc1 (some centres unmarked) [RU 39,411, 11-[4-N,N-[diethylaminoethoxy]phenyl]estra-1,3,5(10)triene-3,17-diol] | 155 ± 8 nM | <1 % control | –
10 | C[C@@H]1CN(CCCn2c3ccccc3c3ccccc32)C[C@H](C)N1 [Rimcazole, 9-[3-[(3S,5R)-3,5-dimethylpiperazin-1-yl]propyl]carbazole] | 2325 ± 8 nM | 12 % control | –
11 | Oc1ccc(C=Cc2cc(O)cc(O)c2)cc1 [Resveratrol] | – | – | OCDO production by MCF-7 (% control) (MCF7 cells [1]): <1 % control
12 | CC(=O)N1CCN(c2ccc(OCC3COC(Cn4ccnc4)(c4ccc(Cl)cc4Cl)O3)cc2)CC1 (centres unmarked) [ketoconazole] | – | – | production of the epoxysterol CE and of its derivatives CT and OCDO (MCF7 cells [2]; 10 μM ketoconazole, three days, MCF7 cells): inhibition of the production of the epoxysterol CE and of its derivatives
13 | Fc1ccc(/C=C/c2cc(F)cc(F)c2)cc1 [Ant 3, (E)-1-(4′-fluorophenyl)-2-(3,5-fluorophenyl)-ethene] | – | – | OCDO production by MCF-7 (% control) (MCF7 cells [1]): <1 % control
14 | (E)-N,3,6,6-tetramethyl-N-(naphthalen-1-ylmethyl)hept-2-en-4-yn-1-amine [Terbinafine] | 9105 ± 33 nM | <1 % control | –
15 | CC/C(=C(\c1ccc(O)cc1)c1ccc(OCCN(C)C)cc1)c1ccccc1 [4OH-Tamoxifen, 4-[(Z)-1-[4-(2-dimethylaminoethyloxy)-phenyl]-2-phenylbut-1-enyl]phenol] | 145 ± 4 nM | <1 % control | –
16 | CCN(CC)CCOc1ccc(/C(=C(\Cl)c2ccccc2)c2ccccc2)cc1 [Clomiphene, 2-[4-[(Z)-2-chloro-1,2-di(phenyl)ethenyl]-phenoxy]-N,N-diethylethanamine] | – | <1 % control | –
17 | CCN(CC)CCOc1ccc(C(O)(Cc2ccc(Cl)cc2)c2ccc(C)cc2)cc1 (centres unmarked) [Triparanol] | 39.5 ± 3 nM | <1 % control | –
18 | CCCC(C(=O)OCCN(CC)CC)(c1ccccc1)c1ccccc1 [SKF-525A, 2-diethylaminoethyl-2,2-diphenylpentanoate] | 1904 ± 11 nM | <1 % control | –
19 | Clc1ccccc1CNC[C@H]1CC[C@H](CNCc2ccccc2Cl)CC1 [AY-9944, trans-1,4-bis(2-chlorobenzaminomethyl)-cyclohexane] | 649 ± 6 nM | <1 % control | –
20 | CC[C@H](C)C(=O)O[C@H]1C[C@@H](C)C=C2C=C[C@H](C)[C@H](CC[C@@H]3C[C@@H](O)CC(=O)O3)[C@H]21 [lovastatin] | – | – | OCDO production by the MCF7 cells (MCF7 cells [2]; 10 μM, control brought to the value 100): less than 1
21 | O=C(c1ccc(OCCN2CCCCC2)cc1)c1c(-c2ccc(O)cc2)sc2cc(O)ccc12 [Raloxifene, [6-hydroxy-2-(4-hydroxyphenyl)-1-benzothiophen-3-yl]-[4-(2-piperidin-1-ylethoxy)phenyl]methanone] | 35.6 ± 4 nM | <1 % control | % CE (MCF7 cells [2]; MCF7 cells, three days): 96.5%; % CT (MCF7 cells [2]; MCF7 cells, three days): 3%; % OCDO (MCF7 cells [2]; MCF7 cells, three days): 0.5%
22 | CCCCc1oc2ccccc2c1C(=O)c1cc(I)c(OCCN(CC)CC)c(I)c1 [Amiodarone, (2-butyl-1-benzofuran-3-yl)-[4-(2-diethylaminoethyloxy)-3,5-diiodophenyl]methanone] | – | 8 % control | –
23 | COc1ccc(/C=C/c2cc(F)cc(F)c2)cc1 [Ant 2, (E)-1-(4′-methoxyphenyl)-2-(3,5-fluorophenyl)-ethene] | – | – | OCDO production by MCF-7 (% control) (MCF7 cells [1]): <1 % control
24 | CCN(CC)CCOc1ccc(Cc2ccccc2)cc1 [Tesmilifene, 2-(4-benzylphenoxy)-N,N-diethylethanamine] | 62.4 ± 3 nM | <1 % control | % CE (MCF7 cells [2]; MCF7 cells, three days): 80.7%; % CT (MCF7 cells [2]; MCF7 cells, three days): 10.5%; % OCDO (MCF7 cells [2]; MCF7 cells, three days): 8.8%
25 | O=C(CCCN1CCC(O)(c2ccc(Cl)cc2)CC1)c1ccc(F)cc1 [Haloperidol, 4-(4-(4-chlorophenyl)-4-hydroxypiperidin-1-yl)-1-(4-fluorophenyl)butan-1-one] | – | 42 % control | –
26 | CC(C)(c1ccccc1)c1ccc(OCCN2CCCC2)cc1 [PCPE, 1-(2-(4-(2-phenylpropan-2-yl)phenoxy)ethyl)-pyrrolidine] | 34.7 ± 8 nM | <1 % control | –
